Experimental data as given in PMC8058733, “A pain killer without analgesic tolerance designed by co-targeting PSD-95-nNOS interaction and α2-containning GABAARs” (Theranostics, 2021).

Legend:
α1β2γ2 GABAARs = target: T1, α1β2γ2 GABAARs (Homo sapiens, UniProt P14867+P18507+P47870); assay: Potentiation of GABA-evoked currents, whole-cell patch-clamp in HEK293 cells transiently expressing recombinant GABAARs; type: cell-based; conditions: α1β2γ2, n = 8
T1 construct: Shanghai Genechem Co.,Ltd (γ2 plasmid); host or cells: HEK293
Procedure: (§1) The affinities of drugs for α1, α2, α3 and α5 subunits were studied in the HEK293 cells (from FuHeng Biology, Shanghai, China) transiently expressing recombinant GABAARs (α1β2γ2, α2β3γ2, α3β3γ2 and α5β2γ2) as described previously. Briefly, the HEK293 cells were cultured in MEM medium supplemented with 10% FBS (fetal bovine serum, Gibico), 1% L-glutamine (Gibco) and 1% mycillin (Gibco). Before transfection, the cells were subcultured onto a 3.5cm dish at the ratio of 1:2. Then, the plasmids of α1/α2/α3/α5 (Origene), β2/β3 (Origene) and γ2 (Shanghai Genechem Co.,Ltd ) (5μg total DNA, ratio 1:1:2) were transfected using Fugene®HD transfection reagent (Promega). The γ2 subunit contained GFP from IRES (internal ribosomal entry site) and was used as a marker of the successful transfection. Cells were used for electrophysiology recording 18-36 hours after transfection.
(§2) Electrophysiology recordings from HEK293 cells were performed as described previously. Briefly, whole-cell patch-clamp recordings of GABA-evoked currents were made at 30 °C with the holding potential of -60 mV. The internal solution (solution in recording electrodes) contained (in mM): 120 CsCl, 10 EGTA, 10 HEPES, 4 MgCl2, 0.5 GTP, 2 ATP and pH was adjusted to 7.4 with CsOH and the external solution contained (in mM): 150 NaCl, 10 KCl, 2 CaCl2, 1 MgCl, 10 HEPES, 10 Glucose and pH was adjusted to 7.4 with NaOH. ACSF was bubbled continuously with carbogen (95%O2 and 5%CO2). For the recording of GABA-evoked currents, the slides were transferred to a recording chamber, which was perfused with ACSF at a rate of 4 ml/min. The cells were viewed under upright microscopy (Olympus), and GFP-positive cells were selected to record the currents. The interval time between each different dose of GABA was controlled, 3 to 5 minutes to avoid the desensitization of GABAARs.

α2β3γ2 GABAARs = target: T2, α2β3γ2 GABAARs (Homo sapiens, UniProt P18507+P28472+P47869); assay: as above; type: cell-based
T2 construct: Shanghai Genechem Co.,Ltd (γ2 plasmid); host or cells: HEK293
Procedure: as §1, §2

α3β3γ2 GABAARs = target: T3, α3β3γ2 GABAARs (Homo sapiens, UniProt P18507+P28472+P34903); assay: as above; type: cell-based; conditions: α3β3γ2, n = 8
T3 construct: Shanghai Genechem Co.,Ltd (γ2 plasmid); host or cells: HEK293
Procedure: as §1, §2

locomotor activity = assay: Open field test, locomotor activity; type: in vivo; conditions: mice, 1 h after injection, ZL006-05 60 mg/kg, i.v., diazepam 0.5 mg/kg
Procedure: The locomotor activity was assessed by the open field test as described previously. The apparatus consisted of a large area composed of plastic, surrounded by walls that were 100 cm high. The floor was 50 × 50 cm for mice; the overall illumination was 25 lux. Each animal was gently placed in the center of the open field, and its behavior was videotaped. The distance the animals travelled was measured in a 5-min session using ANY-maze (Stoelting Co., IL, USA). After each trial, the plate was cleaned with 70% EtOH. No stressor was applied to the animals for at least 12 h before the test.

motor coordination = assay: Rotarod test, motor coordination; type: in vivo; conditions: rats, 30 min after injection, ZL006-05 60 mg/kg, i.v., diazepam 0.5 mg/kg
PSD-95-nNOS complex = target: T4, PSD-95-nNOS complex (Rattus norvegicus, UniProt P29476); assay: Co-IP of PSD-95-nNOS complex levels in the spinal dorsal horn after SNL; type: in vivo; conditions: SNL rats, 60 mg/kg/d, i.g., 3 d
T4 construct: dorsal spinal cord tissues (L4 and L5) were lysed in 400 μl RIPA; from tissue; host or cells: rat dorsal spinal cord (L4 and L5), SNL model

[1] = system: SNL-induced mechanical hyperalgesia; assay: SNL-induced mechanical hyperalgesia, paw withdrawal threshold; type: in vivo, rat; conditions: SNL rats, 60 mg/kg/d, i.g., 11 d
Procedure: (§3) Neuropathic pain was induced by segmental spinal nerve ligation (SNL). Animals were anesthetized with isoflurane. After the loss of righting reflex, the animal was fixed in the prone position. The SNL model was prepared as described previously: a median skin incision with about 3-5 cm length in L4-S2 level of the mouse back was made, the muscles next to the vertebrae till the sixth lumbar protruding were separated, the L5/L6 joint protruding on the right side was exposed and excised, and L6 processus transversus was partially split so that the L4-L6 spinal nerves on the right side were exposed. L5 nerve was gently isolated and tightly ligated with 5-0 silk thread. The wound was closed with 4-0 silk thread suture and covered with iodine solution. After nerve ligation, animals with signs of paw clonus or autotomy were excluded from further experiments.
Osmotic minipumps (models 1004 for mouse and 2ML4 for rat; Alzet) and intrathecal cannulas (0.61 mm outer diameter and 0.28 mm inner diameter for mouse, 0.99 mm outer diameter and 0.58 mm inner diameter for rat) were filled with a solution of PBS. Cannulas were inserted into the subarachnoid space through the space between the L5 and L6 vertebrae and the tip of the catheter was implanted at the L5 spinal segmental level.
For rats, the threshold for 50% paw withdrawal (50% PWT) response to mechanical stimulus was assessed through a dynamic plantar apparatus (Ugo Basile, Italy). The 50% PWT refers to that the probability of paw withdrawal response to repeated mechanical stimulus is 50%. Rats were placed individually in a plastic cage (17 × 15 × 15 cm) with a wire mesh bottom which allowed full access to the paws. Behavioral accommodation was allowed for 15-20 min until cage exploration and major grooming activities ceased. A maximal cut-off of 50g/50s was set to prevent tissue damage. To record the PWT in response to mechanical stimulus, each rat was measured five times with a 5-min interval, and the mean value was recorded after excluding maximal and minimum values. The experimental procedures were performed in a double-blind manner.

spatial memory = assay: Morris water maze task; type: in vivo; conditions: rats; ZL006-05 90 mg/kg/d, i.g.; MK801 0.25 mg/kg/d, i.v.; 6 days
Procedure: The Morris water maze task was used to exam spatial cognitive performance of rats. A circular swimming pool (Jiliang Neuroscience Inc.) measuring 180 cm in diameter and 48 cm in height was filled with water to a depth of 26 cm at 24 ± 2 °C. Four starting points around the edge of the pool were designated as N, E, S, and W, which divided the pool into four quadrants. A platform, 10 cm in diameter, was located in a constant position in the middle of one quadrant. To render it invisible to the rats, platform was submerged 2.0 cm below the surface of the water. The task for the rats was to escape from the water by locating the hidden platform. Two days before training, the animals were habituated to swimming for 60 s in the pool without a platform. In training session, rats were trained to escape from the water by locating the platform which was above the water with a red flag on it. Then, one block of four trails was given for 6 consecutive days, and on each day, two groups of rats were administrated with MK801 (0.25 mg/kg, i.v.) or vehicle (6 mL/kg, i.v.) 30 minutes before the first trail. Meanwhile, another two groups of rats were treated with ZL006-05 (90 mg/kg, i.g.) or vehicle (6 mL/kg, i.g.) 1 hour before the first trail. […] During retention, the number of crossings of the platform location and the time spent in the target quadrant were measured.

neuropathic pain = system: neuropathic pain; parameters: method as in PMID 32632774; conditions: treatment of neuropathic pain, chronic use; cited from earlier work
[2] = system: SNL-induced mechanical hyperalgesia; assay: SNL-induced mechanical hyperalgesia, von Frey; type: in vivo, mice; conditions: SNL mice, ZL006-05 60 mg/kg/d, i.g., × 28 d; pregabalin 30 mg/kg/d
Procedure: as §3
For mice, the threshold for 50% PWT response to mechanical stimulus was quantified by assessing the paw withdrawal threshold using von Frey filaments (Touch-Test TM Sensory Evaluator, North coast Medical, Inc.). Mice were placed individually in a plastic cage (4.5 × 5 × 11 cm) with a wire mesh bottom which allowed full access to the paws. Behavioral accommodation was allowed for 20-30 min until cage exploration and major grooming activities ceased. Mechanical threshold was measured by applying a von Frey filament to the ventral surface of the right hind paw until a positive sign of pain behavior was elicited. The paradigm for assessing the threshold was as follows. Von Frey filaments with logarithmically incremental stiffness (0.02-2 g) were applied serially to the paw by the up-down method. The filaments were presented, in ascending order of strength, perpendicular to the plantar surface with sufficient force to causes light bending against the paw and held for 4s. A positive response was noted if the paw was sharply withdrawn. Flinching immediately upon removal of the hair was also considered a positive response. The 2-g filament was selected as the upper limit cut-off for testing. If there was no response at 2-g filament, animals were assigned this cut-off value. The pattern of positive and negative withdrawal responses was converted to 50% threshold according to the formula: 50% PWT = 10 log (X) + κδ. X = value (in log unit) of the final von Frey hair used; κ is correction factors based on the pattern of responses from the calibration table; δ = mean difference in log units between stimuli (here, 0.224).

T2 sequence (P47869 29-451): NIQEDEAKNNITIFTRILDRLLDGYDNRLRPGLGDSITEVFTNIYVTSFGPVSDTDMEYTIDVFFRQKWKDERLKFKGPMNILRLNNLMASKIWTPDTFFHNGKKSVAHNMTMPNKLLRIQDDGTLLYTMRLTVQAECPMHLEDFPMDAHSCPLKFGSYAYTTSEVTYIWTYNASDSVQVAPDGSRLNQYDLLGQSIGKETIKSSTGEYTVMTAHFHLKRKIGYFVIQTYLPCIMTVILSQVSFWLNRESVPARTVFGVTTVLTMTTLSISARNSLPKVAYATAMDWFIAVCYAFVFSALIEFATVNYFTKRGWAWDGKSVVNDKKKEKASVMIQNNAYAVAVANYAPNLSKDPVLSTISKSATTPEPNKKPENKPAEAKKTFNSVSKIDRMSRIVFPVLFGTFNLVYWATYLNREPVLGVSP
T2 sequence (P28472 26-473): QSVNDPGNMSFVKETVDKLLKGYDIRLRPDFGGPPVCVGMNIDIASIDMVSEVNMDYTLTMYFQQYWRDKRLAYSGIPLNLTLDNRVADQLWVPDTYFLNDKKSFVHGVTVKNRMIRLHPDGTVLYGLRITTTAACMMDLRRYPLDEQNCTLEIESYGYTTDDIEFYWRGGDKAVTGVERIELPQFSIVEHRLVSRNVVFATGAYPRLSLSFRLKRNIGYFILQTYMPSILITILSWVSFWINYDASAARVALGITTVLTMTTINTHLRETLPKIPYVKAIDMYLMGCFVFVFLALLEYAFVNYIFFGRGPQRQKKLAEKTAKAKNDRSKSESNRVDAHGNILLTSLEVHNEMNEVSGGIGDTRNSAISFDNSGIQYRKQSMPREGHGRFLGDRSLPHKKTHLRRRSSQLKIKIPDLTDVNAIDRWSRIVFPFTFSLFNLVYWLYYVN
T2 sequence (P18507 40-475): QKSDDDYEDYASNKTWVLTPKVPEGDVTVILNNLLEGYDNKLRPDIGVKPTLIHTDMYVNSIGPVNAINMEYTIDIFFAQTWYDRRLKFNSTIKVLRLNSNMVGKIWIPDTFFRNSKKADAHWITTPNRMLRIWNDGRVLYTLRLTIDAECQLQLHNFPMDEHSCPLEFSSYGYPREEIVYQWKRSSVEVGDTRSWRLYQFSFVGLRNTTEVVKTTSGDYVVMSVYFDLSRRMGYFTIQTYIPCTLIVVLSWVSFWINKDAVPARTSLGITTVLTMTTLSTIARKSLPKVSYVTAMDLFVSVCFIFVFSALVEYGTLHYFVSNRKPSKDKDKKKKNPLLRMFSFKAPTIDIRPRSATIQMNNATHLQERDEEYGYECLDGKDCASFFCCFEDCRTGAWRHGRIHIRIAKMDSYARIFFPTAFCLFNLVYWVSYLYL
T3 sequence (P34903 29-492): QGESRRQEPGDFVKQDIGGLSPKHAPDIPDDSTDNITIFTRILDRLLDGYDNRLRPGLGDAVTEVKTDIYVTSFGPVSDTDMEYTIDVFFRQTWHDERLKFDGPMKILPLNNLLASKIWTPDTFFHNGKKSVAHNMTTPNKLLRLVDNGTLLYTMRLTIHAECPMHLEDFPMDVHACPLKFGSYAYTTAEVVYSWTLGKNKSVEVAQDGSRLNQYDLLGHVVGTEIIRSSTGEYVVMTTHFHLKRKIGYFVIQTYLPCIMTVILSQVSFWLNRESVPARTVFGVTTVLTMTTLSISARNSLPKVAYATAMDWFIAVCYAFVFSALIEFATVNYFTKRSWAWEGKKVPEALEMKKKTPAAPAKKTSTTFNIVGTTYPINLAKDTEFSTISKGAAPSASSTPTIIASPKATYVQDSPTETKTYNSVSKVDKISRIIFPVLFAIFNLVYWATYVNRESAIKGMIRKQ
T3 sequence (P28472 26-473): as the sequence (P28472 26-473) above
T3 sequence (P18507 40-475): as the sequence (P18507 40-475) above
T4 sequence (P29476 whole entry, one chain of several): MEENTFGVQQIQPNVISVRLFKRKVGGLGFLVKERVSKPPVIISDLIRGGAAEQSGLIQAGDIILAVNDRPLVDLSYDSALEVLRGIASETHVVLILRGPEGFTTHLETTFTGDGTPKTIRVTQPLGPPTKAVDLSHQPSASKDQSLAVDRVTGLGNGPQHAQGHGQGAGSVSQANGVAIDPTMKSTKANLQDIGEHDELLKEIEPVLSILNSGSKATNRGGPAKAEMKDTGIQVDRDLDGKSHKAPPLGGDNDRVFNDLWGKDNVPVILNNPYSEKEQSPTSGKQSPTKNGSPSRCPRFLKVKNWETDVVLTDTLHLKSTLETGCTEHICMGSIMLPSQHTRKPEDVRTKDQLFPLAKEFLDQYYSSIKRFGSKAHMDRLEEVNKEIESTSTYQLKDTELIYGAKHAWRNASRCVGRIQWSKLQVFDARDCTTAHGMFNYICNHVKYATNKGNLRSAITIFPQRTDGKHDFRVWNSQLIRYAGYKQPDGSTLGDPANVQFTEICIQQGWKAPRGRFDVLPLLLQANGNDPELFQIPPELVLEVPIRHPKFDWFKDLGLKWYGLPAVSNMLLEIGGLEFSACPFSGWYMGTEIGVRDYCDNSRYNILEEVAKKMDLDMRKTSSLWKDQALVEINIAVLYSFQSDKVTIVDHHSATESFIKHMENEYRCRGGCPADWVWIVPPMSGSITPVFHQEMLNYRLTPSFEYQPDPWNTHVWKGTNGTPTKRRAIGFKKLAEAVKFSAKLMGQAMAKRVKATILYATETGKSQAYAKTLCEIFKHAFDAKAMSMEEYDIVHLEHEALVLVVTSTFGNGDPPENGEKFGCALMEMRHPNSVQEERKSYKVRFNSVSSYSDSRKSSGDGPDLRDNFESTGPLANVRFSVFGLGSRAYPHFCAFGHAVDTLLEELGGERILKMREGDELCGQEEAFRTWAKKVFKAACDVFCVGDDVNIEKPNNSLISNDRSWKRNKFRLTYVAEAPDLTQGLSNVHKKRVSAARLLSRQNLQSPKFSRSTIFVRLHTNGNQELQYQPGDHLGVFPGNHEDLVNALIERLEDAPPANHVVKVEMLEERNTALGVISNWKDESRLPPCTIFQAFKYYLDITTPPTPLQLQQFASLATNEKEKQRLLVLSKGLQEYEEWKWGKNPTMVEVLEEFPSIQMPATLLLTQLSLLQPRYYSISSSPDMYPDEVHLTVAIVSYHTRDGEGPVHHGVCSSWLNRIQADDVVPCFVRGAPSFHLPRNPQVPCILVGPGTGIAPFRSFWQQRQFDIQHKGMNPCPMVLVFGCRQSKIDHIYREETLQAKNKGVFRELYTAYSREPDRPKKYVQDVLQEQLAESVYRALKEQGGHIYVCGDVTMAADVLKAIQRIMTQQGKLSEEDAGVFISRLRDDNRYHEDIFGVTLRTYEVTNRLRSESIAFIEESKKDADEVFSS
T1 sequence (P14867 28-456): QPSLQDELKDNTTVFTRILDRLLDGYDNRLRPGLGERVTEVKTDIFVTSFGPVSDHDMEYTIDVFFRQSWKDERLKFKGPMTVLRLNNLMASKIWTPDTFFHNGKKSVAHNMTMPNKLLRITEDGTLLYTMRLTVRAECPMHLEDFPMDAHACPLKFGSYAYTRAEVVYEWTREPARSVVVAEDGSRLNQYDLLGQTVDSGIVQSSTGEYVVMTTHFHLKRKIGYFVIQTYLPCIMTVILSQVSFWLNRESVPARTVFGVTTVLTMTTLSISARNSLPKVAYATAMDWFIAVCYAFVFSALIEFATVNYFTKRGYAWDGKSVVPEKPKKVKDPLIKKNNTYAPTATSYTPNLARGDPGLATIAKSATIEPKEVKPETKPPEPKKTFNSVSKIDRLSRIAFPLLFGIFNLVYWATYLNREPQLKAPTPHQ
T1 sequence (P47870 25-512 limits assumed): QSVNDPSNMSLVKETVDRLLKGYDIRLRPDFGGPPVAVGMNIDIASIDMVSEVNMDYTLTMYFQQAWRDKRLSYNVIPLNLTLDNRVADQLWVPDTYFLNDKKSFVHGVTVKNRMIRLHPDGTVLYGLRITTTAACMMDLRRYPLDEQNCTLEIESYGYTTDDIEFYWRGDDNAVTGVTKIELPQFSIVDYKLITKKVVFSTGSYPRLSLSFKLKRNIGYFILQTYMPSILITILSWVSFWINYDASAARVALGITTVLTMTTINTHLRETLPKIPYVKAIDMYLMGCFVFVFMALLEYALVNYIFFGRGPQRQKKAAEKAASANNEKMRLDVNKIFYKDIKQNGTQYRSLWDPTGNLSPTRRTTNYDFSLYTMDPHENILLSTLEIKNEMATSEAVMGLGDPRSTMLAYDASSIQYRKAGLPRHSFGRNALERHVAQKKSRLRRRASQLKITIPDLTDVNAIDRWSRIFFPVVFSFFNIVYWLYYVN
T1 sequence (P18507 40-475): as the sequence (P18507 40-475) above

Structure (SMILES): CN1C(=O)CN=C(c2ccccc2)c2cc(Cl)ccc21 [diazepam]
- Emax (α1β2γ2 GABAARs): 109 ± 18.5%
- Emax (α2β3γ2 GABAARs; α2β3γ2, n = 8): 118 ± 16.4%
- Emax (α3β3γ2 GABAARs): 113 ± 8.58%
- Locomotor activity, distance travelled during 5 min (locomotor activity): reduced the locomotor activity of mice in the open-field test
- Motor coordination, time spent on the accelerating rotarod (motor coordination): shortened the time for rats to fall off an accelerating rotarod significantly

Structure (SMILES): CC1(C)C2CCC1(C)C(OC(=O)c1ccc(NCc3ccccc3O)cc1O)C2 (centres unmarked) [ZL006-05B]
- EC50 (α2β3γ2 GABAARs; α2β3γ2, n = 8): 2.834 ± 0.0033 nM
- Emax (α2β3γ2 GABAARs; α2β3γ2, n = 8): 104 ± 21.9%
- PSD-95-nNOS complex level in the SDH (PSD-95-nNOS complex): without ability to target PSD-95-nNOS
- Analgesic tolerance, mechanical hyperalgesia [1]: caused substantial analgesic tolerance

Structure (SMILES): C[C@]12N[C@H](Cc3ccccc31)c1ccccc12 [MK801]
- Spatial memory in the Morris water maze task (spatial memory): caused significantly impaired spatial memory
- Analgesic tolerance when used chronically (neuropathic pain): cause obvious analgesic tolerance

Structure (SMILES): CC(C)C[C@H](CN)CC(=O)O [pregabalin]
- Analgesic tolerance, mechanical hyperalgesia, 28 days treatment [2]: caused a severe analgesic tolerance

Structure (SMILES): O=C(OC1CCCCC1)c1ccc(NCc2cc(Cl)cc(Cl)c2O)cc1O [ZL006-05A]
- Effect on α2-containing GABAAR (in words) (α2β3γ2 GABAARs; α2β3γ2): without ability to target α2-containing GABAAR
- Analgesic tolerance, mechanical hyperalgesia [1]: caused substantial analgesic tolerance
